In patent US12391683B2, “Therapeutic compounds and methods” (Actio Biosciences, Inc., priority 2022, dated 2025):
Several values for one entry are separate records, joined by “and”; a condition that tells them apart may be missing. Equal values may be shown once.

What was measured:
Human TRPV4 = Human TRPV4 (Homo sapiens, UniProt Q9HBA0); assay: TRPV4 calcium flux assay (FLIPR, antagonist mode); assay type: cell-based; parameters: HiBiT (inferred from the expression read-out); host or cells: HEK293T; details: HEK293T cells transfected with hTRPV4; antagonist mode vs EC80 of TRPV4 agonist; average of at least 3 separate experiments; read-out: Human TRPV4 Ca2+ Assay IC50
Sequence of Human TRPV4 (Q9HBA0 whole entry): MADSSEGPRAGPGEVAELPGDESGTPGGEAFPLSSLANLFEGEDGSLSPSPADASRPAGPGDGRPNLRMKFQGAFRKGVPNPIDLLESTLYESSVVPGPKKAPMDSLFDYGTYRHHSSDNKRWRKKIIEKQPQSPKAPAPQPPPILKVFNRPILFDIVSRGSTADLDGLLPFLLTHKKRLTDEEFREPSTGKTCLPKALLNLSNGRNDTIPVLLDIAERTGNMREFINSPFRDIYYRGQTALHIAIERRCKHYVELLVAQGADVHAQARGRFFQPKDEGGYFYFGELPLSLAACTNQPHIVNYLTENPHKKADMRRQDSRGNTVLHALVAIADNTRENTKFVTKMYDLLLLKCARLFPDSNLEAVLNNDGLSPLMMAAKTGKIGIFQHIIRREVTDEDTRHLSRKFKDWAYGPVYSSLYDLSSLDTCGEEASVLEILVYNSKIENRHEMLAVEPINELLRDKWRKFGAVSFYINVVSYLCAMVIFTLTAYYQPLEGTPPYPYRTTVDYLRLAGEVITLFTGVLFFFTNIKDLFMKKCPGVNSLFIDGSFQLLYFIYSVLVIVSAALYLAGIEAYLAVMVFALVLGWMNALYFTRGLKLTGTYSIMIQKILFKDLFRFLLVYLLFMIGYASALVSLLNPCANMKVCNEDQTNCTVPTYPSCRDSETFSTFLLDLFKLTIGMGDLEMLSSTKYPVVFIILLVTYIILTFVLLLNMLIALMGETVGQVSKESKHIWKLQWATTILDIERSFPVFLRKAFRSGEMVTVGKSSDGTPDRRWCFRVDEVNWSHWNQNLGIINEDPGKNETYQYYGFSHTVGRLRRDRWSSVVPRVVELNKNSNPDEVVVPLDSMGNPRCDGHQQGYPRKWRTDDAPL
Protocol: Example 23. TRPV4 Calcium Assay Methods
Human embryonic kidney 293T (HEK293T/293T) cells are cultured in complete media (Dulbecco's Modified Eagle Medium (DMEM), containing 10% fetal bovine serum (FBS) and 1× penicillin-streptomycin) in a T-75 tissue culture flask. At 90% confluency, cells are detached using TrypLE™ Express cell dissociation buffer. TrypLE™ Express buffer is neutralized by adding culture media in excess. Cells are gently triturated and counted using trypan blue in a Countess 3 automated cell counter. Cells are transferred to a 50 mL conical tube and spun down at 1000 rotations per minute (RPM) for five minutes in a benchtop centrifuge. Media containing detaching enzyme is aspirated off the pellet, followed by resuspension to the desired concentration of 2×10^6 cells per mL in complete DMEM.
Transfection preparations were scaled using a combination of 6 μg of TRPV4 wild-type or mutant plasmid DNA, 36 μL of Fugene6 transfection reagent, and 1000 μL of OptiMEM media for every 2×10^6 cells needed. The transfection mix is left to incubate for 20 minutes at room temperature. Total seeding mixture (1000 μL 2×10^6 cells, 1000 μL transfection mix previously described, and 1000 μL complete DMEM) for one transfection is combined into a 15 mL conical tube. The cells and transfection plasmid are mixed thoroughly and dispensed into a reservoir. This is plated at 25 μL per well in a black 384, black-well, clear-bottom, tissue-culture treated plate. This yields approximately 16,000 cells per well. Plasmid DNA constructs were designed by Actio Biosciences in conjunction with Genscript, and generated by Genscript, for all hTRPV4 wild-type and hTRPV4 P/LP (ClinVar) mutations (G78W, P82S, T891, P97R, R186Q, R232C, R232P, R237G, R237Q, R237 L, R269C, R269H, R269S, G270V, R271P, F273 L, K276E, E278K, G280S, Y281S, R315G, R315W, R316C, R316H, R316 L, R316S, I331F, D333G, S403T, K403T, K407E, S542P, S542Y, L543R, Y591N, R594C, R594H, R594S, G600E, Y602C, R616Q, F617 L, L618P, V6201, A716S, A716T, L735R, T740I, R775K, W785R, E797D, E797K, P799A, P799R, P799S, P799 L, G800D, K801E, P827H, F471del, N797del). The remaining cells are plated in the same manner, in a 384, white-well, clear-bottom, tissue-culture treated plate for expression and relative cell number determination. Plates are placed in the incubator at 37° C. overnight.
Compounds were brought to 10 mM in DMSO. DMSO concentration was kept constant throughout the dilution of any compound. DMSO negative control and concentration-response curves were nanoliter-spotted via PICO8 automated dispenser at 5× test concentration into a 384w clear polypropylene plate containing 1×HBSS+20 mM HEPES buffer. A predetermined concentration equivalent to the EC80 of TRPV4 agonist on hTRPV4 was prepared at 6× in 1×HBSS+20 mM HEPES and loaded into a separate 384-well v-bottom polypropylene plate.
Approximately 18 hours post-transfection, the cell plates were removed from the incubator and equal volume (25 uL) Calcium 6 dye was gently added. Calcium 6 dye containing probenecid (final 5 mM) was prepared per manufacturer's instructions. Cell plate was returned to the incubator for 1 hour, at 37° C.
FLIPR Penta was programmed to add compound using the following settings • Pipettor Head=384 • Read Mode 1 Excitation Wavelength=470_495 • Read Mode 1 Emission Wavelength=515_575 • Read Mode 1 Exposure=0.1000 • Read Mode 1 Gain=6.50 • Read Mode 1 Excitation Intensity=20 • Volume of addition=12.5 μL • Height=40 μL • Speed=15 μL/second
Raw data was exported and analyzed for maximum signal (RFU) after agonist addition—the average baseline (RFU) in the first 15 seconds per well. Data was plotted in GraphPad Prism to determine EC50 or IC50 of the molecules.

Hepatocytes [1] = assay: Hepatocytes predicted clearance, mouse
Hepatocytes [2] = assay: Hepatocytes predicted clearance, rat
Hepatocytes [3] = assay: Hepatocytes predicted clearance, human
Hepatocytes [4] = assay: Hepatocytes predicted clearance, cyno
Hepatocytes [5] = assay: Hepatocytes predicted clearance, dog
[6] = target: recombinant human CYP3A4 enzyme (Homo sapiens, UniProt P08684); assay: CYP3A4 incubation assay; assay type: in vitro ADME
Sequence of recombinant human CYP3A4 enzyme (P08684 whole entry): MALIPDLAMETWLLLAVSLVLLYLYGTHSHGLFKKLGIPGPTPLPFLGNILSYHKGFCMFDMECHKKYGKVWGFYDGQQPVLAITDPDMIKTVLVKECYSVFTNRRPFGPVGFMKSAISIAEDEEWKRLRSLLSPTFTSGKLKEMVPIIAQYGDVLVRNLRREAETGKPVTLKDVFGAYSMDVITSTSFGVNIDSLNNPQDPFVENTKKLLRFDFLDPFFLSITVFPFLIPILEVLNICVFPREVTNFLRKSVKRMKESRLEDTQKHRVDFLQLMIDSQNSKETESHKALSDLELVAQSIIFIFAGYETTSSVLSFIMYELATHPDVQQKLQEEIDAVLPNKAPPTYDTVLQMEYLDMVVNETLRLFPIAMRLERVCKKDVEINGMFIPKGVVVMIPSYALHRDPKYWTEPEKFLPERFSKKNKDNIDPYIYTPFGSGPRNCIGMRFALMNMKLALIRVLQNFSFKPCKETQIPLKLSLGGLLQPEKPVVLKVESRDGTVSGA
Protocol: Example 24. CYP3A4 Incubation Assay
Compounds (final concentration […]) were incubated in 100 mM phosphate buffer containing 100 pmol/mL recombinant human CYP3A4 enzyme for 0, 5, 10, 15 and 25 minutes.
Testosterone was used as positive control. Reaction was initiated by the addition of NADPH (final concentration […]) and carried out at 37° C. The reaction was stopped by the addition of 4 volumes of cold acetonitrile (with 100 nM alprazolam, 200 nM labetalol, 200 nM imipramine and 2 μM ketoprofen as internal standards). Samples were centrifuged at 3,220 g for 40 minutes to precipitate protein. 70 μL supernatant was transferred to the analysis plate containing 110 μL of acetonitrile for LC-MS/MS analysis.
The following table indicates the percentage remaining for the indicated examples after incubation with recombinant Human CYP3A4 after 25 minutes under the same conditions as described for Example […].

[7] = 100 pmol/mL recombinant human CYP3A4, 37° C., 0-25 min

CYP3A4 Clint ([6]; human, recombinant enzyme) | SMILES | IC50 (Human TRPV4) [nM] | Hepatocytes predicted clearance in mouse (Hepatocytes [1]) [mL/min/kg] | Hepatocytes predicted clearance in rat (Hepatocytes [2]) [mL/min/kg] | Hepatocytes predicted clearance in human (Hepatocytes [3]) [mL/min/kg] | Hepatocytes predicted clearance in cyno (Hepatocytes [4]) [mL/min/kg] | Hepatocytes predicted clearance in dog (Hepatocytes [5]) [mL/min/kg] | CYP3A4 Clint [6, 7]
– | CC(C)(O)c1cnc(N2C[C@@]3(CCC(C)(C)[C@H](Cn4cnc5ccc(C#N)cc54)C3)OC2=O)cn1 (single isomer, unassigned) [Example 1] | 606 | 118 | 10.8 | 4.5 | 4 | 11.5 | –
– | CC(C)(O)c1cnc(N2C[C@@]3(CCC4(CC4)[C@@H](Cn4cnc5ccc(C#N)cc54)C3)OC2=O)cn1 (single isomer, unassigned) [Example 3] | 852 | 131 | 79.5 | 3.17 | 182 | 17.3 | –
<0.07, <0.07 μL/min/pmol CYP450 | CC(C)(O)c1cnc(N2C[C@@]3(CCC4(CC4)[C@](C)(Cn4cnc5ccc(C#N)cc54)C3)OC2=O)cn1 (single isomer, unassigned) [Example 6] | 8 | 24.5 | 8.3 | 6.5 | 120 | 3.17 | –
– | CC(C)(O)c1cnc(N2C[C@@]3(CCC[C@](CF)(Cn4cnc5ccc(C#N)cc54)C3)OC2=O)cn1 (single isomer, unassigned) [Example 7] | 11 | 43.2 | 6.7 | 1 | 4.5 | < 0.17 | <0.07, <0.07 μL/min/pmol CYP450
<0.07, <0.07 μL/min/pmol CYP450 | CC(C)(O)c1cnc(N2C[C@@]3(CC[C@H]4C[C@@]4(Cn4cnc5ccc(C#N)cc54)C3)OC2=O)cn1 (single isomer, unassigned) [Example 8] | 391 | 281.2 | 54.5 | < 0.17 | 37.5 | 30 | –
– | CO[C@@H]1CC[C@@]2(CN(c3cnc(C(C)(C)O)cn3)C(=O)O2)C[C@@]1(C)Cn1cnc2ccc(C#N)cc21 (single isomer, unassigned) [Example 10] | 158 | – | – | – | – | – | 0.22 μL/min/pmol CYP450 and 0.21 μL/min/pmol CYP450
– | CC(C)(C)CN1C[C@@]2(CCC(F)(F)[C@H](Cn3cnc4ccc(C#N)cc43)C2)OC1=O (single isomer, unassigned) [Example 11] | 39 | 515.2 | 251.2 | 17.3 | 90.5 | 63.3 | –
– | N#Cc1ccc2ncn(C[C@@H]3C[C@@]4(CCC3(F)F)CN(c3ccccc3Cl)C(=O)O4)c2c1 (single isomer, unassigned) [Example 12] | 103 | 449.3 | 82.5 | 7.5 | 101 | 284.5 | –
– | CCOc1ccccc1N1C[C@@]2(CCC(F)(F)[C@H](Cn3cnc4ccc(C#N)cc43)C2)OC1=O (single isomer, unassigned) [Example 13] | 496 | – | – | – | – | – | –
– | C=C1CC[C@@]2(CN(c3cnc(C(C)(C)O)cn3)C(=O)O2)C[C@@]1(C)Cn1cnc2ccc(C#N)cc21 (single isomer, unassigned) [Example 16] | 2130 | 90.7 | 69.3 | 5.5 | 22.7 | 4 | 0.20 μL/min/pmol CYP450 and 0.19 μL/min/pmol CYP450
– | CC1(C)C[C@](C)(Cn2cnc3ccc(C#N)cc32)C[C@@]2(CN(c3cnc(C(C)(C)O)cn3)C(=O)O2)C1 (single isomer, unassigned) [Example 17] | 5740 | 119 | 39.3 | 1.5 | 43.7 | 1.3 | 0.07, <0.07 μL/min/pmol CYP450
– | CC(C)(O)c1cnc(N2C[C@@]3(CC[C@@H](F)[C@](C)(Cn4cnc5cc(F)c(C#N)cc54)C3)OC2=O)cn1 (single isomer, unassigned) [Example 18] | 9 | – | – | – | – | – | –
– | CC(C)(O)c1cnc(N2C[C@@]3(CC[C@@H](F)[C@](C)(Cn4cnc5c(Cl)cc(C#N)cc54)C3)OC2=O)cn1 (single isomer, unassigned) [Example 19] | 9 | – | – | – | – | – | –
– | CO[C@]1(Cn2cnc3ccc(C#N)cc32)CCC[C@@]2(CN(c3cnc(C(C)(C)O)cn3)C(=O)O2)C1 [Example 9, 1-(((5S,7R)-3-(5-(2-Hydroxypropan-2-yl)pyrazin-2-yl)-7-methoxy-2-oxo-1-oxa-3-azaspiro[4.5]decan-7-yl)methyl)-1H-benzo[d]imidazole-6-carbonitrile] | 213 | – | – | – | – | – | 0.42 μL/min/pmol CYP450 and 0.33 μL/min/pmol CYP450
